Test results from US12544395B2, “Combination compositions comprising a beta-lactamase inhibitor and uses thereof” (priority 2018, dated 2026).
Where two headings read alike, the source gives them in different places.

Experiments:
Assay type in all cases: cell-based
E. coli 1924 = assay: Broth microdilution MIC (strain enzymes: TEM-12); conditions: Escherichia coli, 1924, alone
E. coli 2150 = assay: Broth microdilution MIC (strain enzymes: SHV-3, TEM-1); conditions: Escherichia coli, 2150, alone
E. coli 2806 = assay: Broth microdilution MIC (strain enzymes: SHV-12, TEM-1); conditions: Escherichia coli, 2806, alone
E. coli 3174 = assay: Broth microdilution MIC (strain enzymes: TEM-1, CTXM-15); conditions: Escherichia coli, 3174, alone
E. coli 3327 = assay: Broth microdilution MIC (strain enzymes: TEM-1, SHV-12); conditions: Escherichia coli, 3327, alone
E. coli BAS 1 = assay: Broth microdilution MIC (strain enzymes: none detected); conditions: Escherichia coli, BAS1, alone
E. coli ESBL 2 = assay: Broth microdilution MIC (strain enzymes: TEM-1); conditions: Escherichia coli, ESBL2, alone
E. coli ESBL 4 = assay: Broth microdilution MIC (strain enzymes: CTX-M15, TEM-1); conditions: Escherichia coli, ESBL4, alone
E. coli ESBL 5 = assay: as above; conditions: Escherichia coli, ESBL5, alone
E. coli SI-AIRT-4 = assay: Broth microdilution MIC (strain enzymes: TEM-1); conditions: Escherichia coli, SIAIRT4, alone
E. coli Si-FDL-GES = assay: microbe, parasite or virus in culture; conditions: Escherichia coli
E. coli SI-LP377 = assay: microbe, parasite or virus in culture; conditions: Escherichia coli
E. coli SI-M004 = assay: Broth microdilution MIC (strain enzymes: SHV-2, GES-12); conditions: Escherichia coli, SIM004, alone
E. coli SI-NO36 = assay: Broth microdilution MIC (strain enzymes: SHV-11, TEM-1); conditions: Escherichia coli, SINO36, alone
E. coli SI-PBLII = assay: Broth microdilution MIC (strain enzymes: CTX-M2, TEM-1); conditions: Escherichia coli, alone
E. coli SI-V502 = assay: Broth microdilution MIC (strain enzymes: TEM-29, CTX-M15); conditions: Escherichia coli, SIV502, alone
E. coli 25922 = assay: Broth microdilution MIC (strain enzymes: None detected); conditions: Escherichia coli, 25922, alone
K. oxytoca 169219 = assay: Broth microdilution MIC (strain enzymes: TEM-1, CTXM-15); conditions: Klebsiella oxytoca, 169219, alone
K. oxytoca 176877 = assay: Broth microdilution MIC (strain enzymes: SHV-105); conditions: Klebsiella oxytoca, 176877, alone
K. oxytoca 496 #2 = assay: Broth microdilution MIC (strain enzymes: SHV-105, TEM-1); conditions: Klebsiella oxytoca, alone
K. pneumoniae 3151 = assay: Broth microdilution MIC (strain enzymes: SHV-12, TEM-1); conditions: Klebsiella pneumoniae, 3151, alone
K. pneumoniae 115468 = assay: Broth microdilution MIC (strain enzymes: TEM-1); conditions: Klebsiella pneumoniae, 115468, alone
K. pneumoniae 153239 = assay: Broth microdilution MIC (strain enzymes: SHV-11, TEM-1); conditions: Klebsiella pneumoniae, 153239, alone
K. pneumoniae 170375 = assay: Broth microdilution MIC (strain enzymes: SHV-12, CTX-M15 and TEM-1); conditions: Klebsiella pneumoniae, 170375, alone
K. pneumoniae 304487 = assay: Broth microdilution MIC (strain enzymes: SHV-12,TEM-1); conditions: Klebsiella pneumoniae, 304487, alone
K. pneumoniae 319478 = assay: Broth microdilution MIC (strain enzymes: SHV-12, CTX-M3 and TEM-1); conditions: Klebsiella pneumoniae, 319478, alone
K. pneumoniae 329633 = assay: Broth microdilution MIC (strain enzymes: SHV-5, TEM-1); conditions: Klebsiella pneumoniae, 329633, alone
K. pneumoniae 11/23 LF#2 = assay: microbe, parasite or virus in culture; conditions: Klebsiella pneumoniae
K. pneumoniae ESBL 10 = assay: Broth microdilution MIC (strain enzymes: SHV-12, TEM-1); conditions: Klebsiella pneumoniae, ESBL10, alone
K. pneumoniae ESBL 7 #1 = assay: as above; conditions: Klebsiella pneumoniae, alone
K. pneumoniae ESBL 8 #1 = assay: Broth microdilution MIC (strain enzymes: TEM-1, SHV-12); conditions: Klebsiella pneumoniae, alone
K. pneumoniae ESBL 8 #2 = assay: Broth microdilution MIC (strain enzymes: SHV-12, TEM-1); conditions: Klebsiella pneumoniae, alone
K. pneumoniae ESBL 7 #2 = assay: Broth microdilution MIC (strain enzymes: SHV-12, CTX-M15, TEM-1); conditions: Klebsiella pneumoniae, alone
K. pneumoniae KI (KCl) = assay: Broth microdilution MIC (strain enzymes: TEM-10); conditions: Klebsiella pneumoniae, alone
K. pneumoniae KP 3 = assay: Broth microdilution MIC (strain enzymes: SHV-1, TEM-1); conditions: Klebsiella pneumoniae, KP3, alone
K. pneumoniae KP 4 = assay: Broth microdilution MIC (strain enzymes: SHV-2a, SHV-5, TEM-1); conditions: Klebsiella pneumoniae, KP4, alone
K. pneumoniae KP 8 = assay: Broth microdilution MIC (strain enzymes: TEM-10, TEM-1, CTX-M15); conditions: Klebsiella pneumoniae, KP8, alone
K. pneumoniae KPN 508 = assay: Broth microdilution MIC (strain enzymes: SHV-7, TEM-1); conditions: Klebsiella pneumoniae, KPN508, alone
K. pneumoniae SI-KP NO30 = assay: Broth microdilution MIC (strain enzymes: TEM-26b, SHV-60, SHV-26); conditions: Klebsiella pneumoniae, SIKPNO30, alone
K. pneumoniae BAA 1705 = assay: Broth microdilution MIC (strain KPC-producing); conditions: Klebsiella pneumoniae, BAA1705, alone
[1] = test system: panel of ESBL-producing Enterobacteriaceae (40 strains); assay: Broth microdilution MIC50/MIC90 summary over the panel
[2] = read-out: MIC of cefdinir (CDR)
[3] = read-out: MIC of cefixime (CFM)

C=CC1=C(C(=O)O)N2C(=O)[C@@H](NC(=O)/C(=N\O)c3csc(N)n3)[C@H]2SC1 [Cefdinir, cefdinir, reference compound]
> 32 mg/L: MIC (E. coli 2150; [2]) | MIC (E. coli BAS 1; [2]) | MIC (E. coli ESBL 2; [2]) | MIC (E. coli ESBL 4; [2]) | MIC (E. coli ESBL 5; [2]) | MIC (E. coli Si-FDL-GES; [2]) | MIC (E. coli SI-LP377; SILP377, read-out: MIC of cefdinir (CDR)) | MIC (K. oxytoca 169219; [2]) | MIC (K. pneumoniae 3151; [2]) | MIC (K. pneumoniae 170375; [2]) | MIC (K. pneumoniae 319478; [2]) | MIC (K. pneumoniae ESBL 7 #2; [2]) | MIC (K. pneumoniae BAA 1705; [2]) | MIC90 ([1]; read-out: Cefdinir MIC90)
4 mg/L: MIC (E. coli 2806; [2]) | MIC (E. coli SI-NO36; [2]) | MIC (K. pneumoniae KP 3; [2])
32 mg/L: MIC (E. coli SI-M004; [2]) | MIC (K. pneumoniae ESBL 7 #1; [2]) | MIC (K. pneumoniae KPN 508; [2])
8 mg/L: MIC (K. oxytoca 176877; [2]) | MIC (K. pneumoniae 115468; [2]) | MIC (K. pneumoniae 304487; [2]) | MIC (K. pneumoniae KP 4; [2])
0.25 mg/L: MIC (E. coli SI-AIRT-4; [2])
2 mg/L: MIC (E. coli 1924; [2]) | MIC (E. coli SI-PBLII; [2]) | MIC (E. coli SI-V502; [2]) | MIC (K. pneumoniae 153239; [2]) | MIC (K. pneumoniae 11/23 LF#2; [2])
1 mg/L: MIC (E. coli 3174; [2]) | MIC (K. pneumoniae KI (KCl); [2])
16 mg/L: MIC (E. coli 3327; [2]) | MIC (K. oxytoca 496 #2; [2]) | MIC (K. pneumoniae 329633; [2]) | MIC (K. pneumoniae ESBL 10; [2]) | MIC (K. pneumoniae ESBL 8 #1; [2]) | MIC (K. pneumoniae ESBL 8 #2; [2]) | MIC50 ([1]; read-out: Cefdinir MIC50)
0.5 mg/L: MIC (E. coli 25922; [2]) | MIC (K. pneumoniae KP 8; [2]) | MIC (K. pneumoniae SI-KP NO30; [2])

C=CC1=C(C(=O)O)N2C(=O)[C@@H](NC(=O)/C(=N\OCC(=O)O)c3csc(N)n3)[C@H]2SC1 [Cefixime, cefixime, reference compound]
32 mg/L: MIC (E. coli 2806; [3]) | MIC (K. oxytoca 496 #2; [3]) | MIC (K. pneumoniae KI (KCl); [3])
0.5 mg/L: MIC (E. coli 3174; [3]) | MIC (E. coli SI-AIRT-4; [3]) | MIC (K. pneumoniae 153239; [3])
2 mg/L: MIC (E. coli 1924; [3]) | MIC (E. coli Si-FDL-GES; [3]) | MIC (E. coli SI-V502; [3])
> 32 mg/L: MIC (E. coli 2150; [3]) | MIC (E. coli 3327; [3]) | MIC (E. coli BAS 1; [3]) | MIC (E. coli ESBL 2; [3]) | MIC (E. coli ESBL 4; [3]) | MIC (E. coli ESBL 5; [3]) | MIC (E. coli SI-LP377; SILP377, read-out: MIC of cefixime (CFM)) | MIC (E. coli SI-M004; [3]) | MIC (K. oxytoca 169219; [3]) | MIC (K. oxytoca 176877; [3]) | MIC (K. pneumoniae 3151; [3]) | MIC (K. pneumoniae 115468; [3]) | MIC (K. pneumoniae 170375; [3]) | MIC (K. pneumoniae 304487; [3]) | MIC (K. pneumoniae 319478; [3]) | MIC (K. pneumoniae 329633; [3]) | MIC (K. pneumoniae 11/23 LF#2; [3]) | MIC (K. pneumoniae ESBL 10; [3]) | MIC (K. pneumoniae ESBL 7 #1; [3]) | MIC (K. pneumoniae ESBL 8 #1; [3]) | MIC (K. pneumoniae ESBL 8 #2; [3]) | MIC (K. pneumoniae ESBL 7 #2; [3]) | MIC (K. pneumoniae KP 3; [3]) | MIC (K. pneumoniae KP 4; [3]) | MIC (K. pneumoniae KP 8; [3]) | MIC (K. pneumoniae KPN 508; [3]) | MIC (K. pneumoniae SI-KP NO30; [3]) | MIC (K. pneumoniae BAA 1705; [3]) | MIC50 ([1]; read-out: Cefixime MIC50) | MIC90 ([1]; read-out: Cefixime MIC90)
1 mg/L: MIC (E. coli SI-NO36; [3]) | MIC (E. coli SI-PBLII; [3]) | MIC (E. coli 25922; [3])
